Key:
[1] = biological target: Ribosomal protein S6 kinase alpha-2 (Homo sapiens) (UniProt Q15349); test: Inhibition of human RSK3 expressed in bacterial expression system assessed as residual activity at 1 uM by Kinomescan method relative to control
[2] = biological target: Tyrosine-protein kinase receptor UFO (Homo sapiens) (UniProt P30530); test: Inhibition of wild-type human partial length AXL (R497 to Y821 residues) expressed in bacterial expression system assessed as residual activity at 1 uM by Kinomescan method relative to control
[3] = biological target: Serine/threonine-protein kinase Sgk1 (Homo sapiens) (UniProt O00141); test: Inhibition of wild-type human partial length SGK1 (I60 to L431 residues) expressed in mammalian expression system assessed as residual activity at 1 uM by Kinomescan method relative to control
[4] = biological target: Cyclin-dependent kinase 5/CDK5 activator 1 (Homo sapiens) (UniProt Q00535+Q15078); test: Inhibition of wild-type human full length CDK5 (M1 to P292 residues)/p25 expressed in bacterial expression system assessed as residual activity at 1 uM by Kinomescan method relative to control
[5] = biological target: Ephrin type-B receptor 4 (Homo sapiens) (UniProt P54760); test: Inhibition of wild-type human partial length EPHB4 (H585 to G892 residues) expressed in bacterial expression system assessed as residual activity at 1 uM by Kinomescan method relative to control
[6] = biological target: Ribosomal protein S6 kinase alpha-3 (Homo sapiens) (UniProt P51812); test: Inhibition of wild-type human partial length N-terminal RSK2 kinase domain 1 (M1 to D394 residues) expressed in mammalian expression system assessed as residual activity at 1 uM by Kinomescan method relative to control
[7] = biological target: Fibroblast growth factor receptor 3 (Homo sapiens) (UniProt P22607); test: Inhibition of wild-type human partial length FGFR3 (R442 to S771 residues) expressed in bacterial expression system assessed as residual activity at 1 uM by Kinomescan method relative to control
Homo sapiens = species on record: Homo sapiens; test: Inhibition of PKA (unknown origin) assessed as residual activity at 1 uM by Kinomescan method relative to control
[8] = biological target: Wee1-like protein kinase (Homo sapiens) (UniProt P30291); test: Inhibition of wild-type human partial length WEE1 (M291 to K575 residues) expressed in bacterial expression system assessed as residual activity at 1 uM by Kinomescan method relative to control
[9] = biological target: Hepatocyte growth factor receptor (Homo sapiens) (UniProt P08581); test: Inhibition of wild-type human partial length c-MET (D1010 to S1367 residues) expressed in bacterial expression system assessed as residual activity at 1 uM by Kinomescan method relative to control
[10] = biological target: Serine/threonine-protein kinase pim-3 (Homo sapiens) (UniProt Q86V86); test: Inhibition of wild-type human partial length PIM3 (G16 to A317 residues) expressed in bacterial expression system assessed as residual activity at 1 uM by Kinomescan method relative to control
[11] = biological target: Insulin receptor (Homo sapiens) (UniProt P06213); test: Inhibition of IR (unknown origin)assessed as residual activity at 1 uM by Kinomescan method relative to control
[12] = biological target: SRSF protein kinase 2 (Homo sapiens) (UniProt P78362); test: Inhibition of wild-type human full length SRPK2 (M1 to S686 residues) expressed in bacterial expression system assessed as residual activity at 1 uM by Kinomescan method relative to control
[13] = biological target: Serine/threonine-protein kinase Nek11 (Homo sapiens) (UniProt Q8NG66); test: Inhibition of wild-type human partial length NEK11 (M1 to E313 residues) expressed in mammalian expression system assessed as residual activity at 1 uM by Kinomescan method relative to control
[14] = biological target: Serine/threonine-protein kinase SIK2 (Homo sapiens) (UniProt Q9H0K1); test: Inhibition of wild-type human full length SIK2 (M1 to N926 residues) expressed in bacterial expression system assessed as residual activity at 1 uM by Kinomescan method relative to control
[15] = biological target: RAF proto-oncogene serine/threonine-protein kinase (Homo sapiens) (UniProt P04049); test: Inhibition of wild-type human partial length RAF1 (I330 to T640 residues) expressed in bacterial expression system assessed as residual activity at 1 uM by Kinomescan method relative to control
[16] = biological target: Rhodopsin kinase GRK7 (Homo sapiens) (UniProt Q8WTQ7); test: Inhibition of wild-type human full length GRK7 (M1 to L553 residues) expressed in mammalian expression system assessed as residual activity at 1 uM by Kinomescan method relative to control
[17] = biological target: Mitogen-activated protein kinase 9 (Homo sapiens) (UniProt P45984); test: Inhibition of wild-type human full length JNK2 (M1 to Q382 residues) expressed in mammalian expression system assessed as residual activity at 1 uM by Kinomescan method relative to control
[18] = biological target: CDC7/DBF4 (Cell division cycle 7-related protein kinase/Activator of S phase kinase) (Homo sapiens) (UniProt Q9UBU7+O00311); test: Inhibition of CDC7/DBF4 (unknown origin) assessed as residual activity at 1 uM by Kinomescan method relative to control; assay type: protein-complex assay
[19] = biological target: Cyclin-dependent kinase 4/cyclin D1 (Homo sapiens) (UniProt P11802+P24385); test: Inhibition of wild-type human full length CDK4/cyclinD1 (M1 to E303 residues) expressed in mammalian expression system assessed as residual activity at 1 uM by Kinomescan method relative to control
[20] = biological target: G protein-coupled receptor kinase 5 (Homo sapiens) (UniProt P34947); test: Inhibition of GRK5 (unknown origin) assessed as residual activity at 1 uM by Kinomescan method relative to control
[21] = biological target: Dual specificity protein kinase CLK1 (Homo sapiens) (UniProt P49759); test: Inhibition of wild-type human full length CLK1 (M1 to I484 residues) expressed in bacterial expression system assessed as residual activity at 1 uM by Kinomescan method relative to control
[22] = biological target: Calcium/calmodulin-dependent protein kinase type II subunit gamma (Homo sapiens) (UniProt Q13555); test: Inhibition of wild-type human partial length CAMK2G (R9 to A303 residues) expressed in bacterial expression system assessed as residual activity at 1 uM by Kinomescan method relative to control
[23] = biological target: Mitogen-activated protein kinase kinase kinase 20 (Homo sapiens) (UniProt Q9NYL2); test: Inhibition of wild-type human partial length ZAK (M1 to L331 residues) expressed in bacterial expression system assessed as residual activity at 1 uM by Kinomescan method relative to control
[24] = biological target: Homeodomain-interacting protein kinase 1 (Homo sapiens) (UniProt Q86Z02); test: Inhibition of wild-type human partial length HIPK1 (M146 to I555 residues) expressed in mammalian expression system assessed as residual activity at 1 uM by Kinomescan method relative to control
[25] = biological target: Calcium/calmodulin-dependent protein kinase type II subunit beta (Homo sapiens) (UniProt Q13554); test: Inhibition of wild-type human partial length CAMK2B (M1 to Q380 residues) expressed in bacterial expression system assessed as residual activity at 1 uM by Kinomescan method relative to control

Chain of CDC7/DBF4 (Cell division cycle 7-related protein kinase/Activator of S phase kinase) (Homo sapiens) (O00311 whole entry, looked up, the tested form may be a part): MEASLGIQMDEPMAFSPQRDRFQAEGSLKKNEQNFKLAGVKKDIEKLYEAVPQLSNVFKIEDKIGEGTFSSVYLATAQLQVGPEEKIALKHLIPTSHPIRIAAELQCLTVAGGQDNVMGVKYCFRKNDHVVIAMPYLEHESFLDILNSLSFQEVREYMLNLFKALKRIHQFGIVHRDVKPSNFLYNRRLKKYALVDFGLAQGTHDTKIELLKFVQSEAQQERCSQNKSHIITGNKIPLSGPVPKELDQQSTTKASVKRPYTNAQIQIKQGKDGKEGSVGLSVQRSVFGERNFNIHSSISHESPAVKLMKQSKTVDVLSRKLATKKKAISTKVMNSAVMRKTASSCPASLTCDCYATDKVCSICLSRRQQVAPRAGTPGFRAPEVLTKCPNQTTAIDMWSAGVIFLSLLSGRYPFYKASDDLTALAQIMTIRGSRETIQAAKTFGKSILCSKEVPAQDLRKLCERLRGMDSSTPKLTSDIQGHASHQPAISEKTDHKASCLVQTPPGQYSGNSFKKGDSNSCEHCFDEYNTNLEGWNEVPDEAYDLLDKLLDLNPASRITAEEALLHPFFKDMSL
Chain of CDC7/DBF4 (Cell division cycle 7-related protein kinase/Activator of S phase kinase) (Homo sapiens) (Q9UBU7 whole entry, looked up, the tested form may be a part): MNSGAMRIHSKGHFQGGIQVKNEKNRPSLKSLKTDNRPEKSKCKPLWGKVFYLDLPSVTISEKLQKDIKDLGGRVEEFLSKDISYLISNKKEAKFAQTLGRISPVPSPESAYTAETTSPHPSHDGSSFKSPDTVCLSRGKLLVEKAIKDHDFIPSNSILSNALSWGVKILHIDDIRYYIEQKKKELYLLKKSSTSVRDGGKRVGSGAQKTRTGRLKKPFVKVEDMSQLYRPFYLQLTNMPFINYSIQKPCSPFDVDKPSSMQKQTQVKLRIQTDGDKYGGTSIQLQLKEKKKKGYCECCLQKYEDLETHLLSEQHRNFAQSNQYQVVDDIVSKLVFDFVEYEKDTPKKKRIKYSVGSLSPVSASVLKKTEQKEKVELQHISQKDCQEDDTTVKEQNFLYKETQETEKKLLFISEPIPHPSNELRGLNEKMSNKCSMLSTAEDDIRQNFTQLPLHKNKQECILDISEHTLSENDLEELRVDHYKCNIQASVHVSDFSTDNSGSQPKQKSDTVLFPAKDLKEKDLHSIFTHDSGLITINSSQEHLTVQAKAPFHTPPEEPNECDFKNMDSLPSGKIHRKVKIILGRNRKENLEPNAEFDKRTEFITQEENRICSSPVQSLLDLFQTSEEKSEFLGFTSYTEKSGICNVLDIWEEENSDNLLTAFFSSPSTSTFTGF
Chain of Cyclin-dependent kinase 5/CDK5 activator 1 (Homo sapiens) (Q00535 whole entry, the tested form may be a part): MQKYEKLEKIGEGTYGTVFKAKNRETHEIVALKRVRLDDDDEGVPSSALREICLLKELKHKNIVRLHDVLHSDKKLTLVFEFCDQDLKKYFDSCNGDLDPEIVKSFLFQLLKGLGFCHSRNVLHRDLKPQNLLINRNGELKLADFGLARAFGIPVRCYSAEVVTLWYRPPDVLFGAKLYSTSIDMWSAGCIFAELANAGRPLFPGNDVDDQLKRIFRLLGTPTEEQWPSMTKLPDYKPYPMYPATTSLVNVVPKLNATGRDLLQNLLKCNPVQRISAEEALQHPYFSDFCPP
Chain of Cyclin-dependent kinase 5/CDK5 activator 1 (Homo sapiens) (Q15078 99-307 partner limits assumed): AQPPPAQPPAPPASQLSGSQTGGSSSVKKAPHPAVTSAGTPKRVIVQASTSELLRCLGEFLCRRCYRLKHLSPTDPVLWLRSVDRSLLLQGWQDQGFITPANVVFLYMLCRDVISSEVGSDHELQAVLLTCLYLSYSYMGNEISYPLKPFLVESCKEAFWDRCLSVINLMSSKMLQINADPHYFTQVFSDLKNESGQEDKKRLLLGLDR
Chain of RAF proto-oncogene serine/threonine-protein kinase (Homo sapiens) (P04049 whole entry, the tested form may be a part): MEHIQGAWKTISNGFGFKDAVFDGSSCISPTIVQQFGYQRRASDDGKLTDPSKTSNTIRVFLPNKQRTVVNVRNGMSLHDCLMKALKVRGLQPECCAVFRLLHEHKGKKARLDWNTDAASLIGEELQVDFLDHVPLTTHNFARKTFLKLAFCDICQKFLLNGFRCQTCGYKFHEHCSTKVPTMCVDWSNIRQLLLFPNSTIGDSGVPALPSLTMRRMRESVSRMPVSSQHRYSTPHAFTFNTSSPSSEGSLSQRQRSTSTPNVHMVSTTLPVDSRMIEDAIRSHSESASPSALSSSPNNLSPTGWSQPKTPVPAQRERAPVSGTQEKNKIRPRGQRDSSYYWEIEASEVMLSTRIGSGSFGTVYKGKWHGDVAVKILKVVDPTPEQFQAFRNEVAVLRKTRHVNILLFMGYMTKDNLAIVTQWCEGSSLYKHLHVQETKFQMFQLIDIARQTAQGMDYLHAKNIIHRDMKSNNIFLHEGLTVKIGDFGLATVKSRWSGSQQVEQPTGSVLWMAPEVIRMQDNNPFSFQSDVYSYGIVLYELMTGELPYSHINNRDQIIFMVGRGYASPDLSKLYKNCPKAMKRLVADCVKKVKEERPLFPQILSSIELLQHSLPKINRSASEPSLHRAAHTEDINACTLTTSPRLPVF
Chain of Insulin receptor (Homo sapiens) (P06213 28-758 limits assumed): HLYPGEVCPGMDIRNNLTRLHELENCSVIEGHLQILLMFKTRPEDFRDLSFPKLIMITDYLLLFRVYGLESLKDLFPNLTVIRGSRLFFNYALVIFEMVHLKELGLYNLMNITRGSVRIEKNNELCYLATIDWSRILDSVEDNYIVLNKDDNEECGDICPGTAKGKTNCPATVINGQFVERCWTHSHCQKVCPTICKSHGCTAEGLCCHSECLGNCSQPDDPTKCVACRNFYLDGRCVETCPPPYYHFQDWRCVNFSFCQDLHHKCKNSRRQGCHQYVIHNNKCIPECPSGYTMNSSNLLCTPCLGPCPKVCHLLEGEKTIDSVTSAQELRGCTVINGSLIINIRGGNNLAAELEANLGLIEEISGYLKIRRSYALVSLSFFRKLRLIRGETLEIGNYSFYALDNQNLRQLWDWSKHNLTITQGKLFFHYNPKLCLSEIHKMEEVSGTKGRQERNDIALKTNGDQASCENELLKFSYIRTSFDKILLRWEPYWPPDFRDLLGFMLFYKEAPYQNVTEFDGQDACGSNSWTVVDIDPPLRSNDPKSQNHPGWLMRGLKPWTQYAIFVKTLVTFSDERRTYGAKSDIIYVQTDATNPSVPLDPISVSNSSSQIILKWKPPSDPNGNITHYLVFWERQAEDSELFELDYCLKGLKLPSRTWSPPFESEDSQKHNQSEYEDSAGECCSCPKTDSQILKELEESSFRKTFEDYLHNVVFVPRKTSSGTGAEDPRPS
Chain of Insulin receptor (Homo sapiens) (P06213 763-1382 limits assumed): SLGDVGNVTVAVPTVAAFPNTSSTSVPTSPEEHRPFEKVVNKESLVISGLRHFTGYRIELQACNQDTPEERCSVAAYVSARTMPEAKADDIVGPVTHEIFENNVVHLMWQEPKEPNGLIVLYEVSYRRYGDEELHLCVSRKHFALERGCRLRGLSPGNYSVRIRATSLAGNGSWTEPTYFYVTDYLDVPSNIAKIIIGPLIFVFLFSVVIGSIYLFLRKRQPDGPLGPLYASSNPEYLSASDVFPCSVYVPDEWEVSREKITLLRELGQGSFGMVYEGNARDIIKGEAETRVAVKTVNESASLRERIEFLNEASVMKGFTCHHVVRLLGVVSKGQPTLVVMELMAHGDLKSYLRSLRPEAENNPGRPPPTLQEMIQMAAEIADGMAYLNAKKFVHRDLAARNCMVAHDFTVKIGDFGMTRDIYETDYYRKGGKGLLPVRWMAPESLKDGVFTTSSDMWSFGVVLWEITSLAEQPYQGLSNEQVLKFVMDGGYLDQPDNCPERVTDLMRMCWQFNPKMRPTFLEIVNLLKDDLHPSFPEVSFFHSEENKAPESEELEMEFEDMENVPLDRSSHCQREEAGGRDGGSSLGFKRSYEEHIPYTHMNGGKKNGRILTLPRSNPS
Chain of Mitogen-activated protein kinase kinase kinase 20 (Homo sapiens) (Q9NYL2 2-800 limits assumed): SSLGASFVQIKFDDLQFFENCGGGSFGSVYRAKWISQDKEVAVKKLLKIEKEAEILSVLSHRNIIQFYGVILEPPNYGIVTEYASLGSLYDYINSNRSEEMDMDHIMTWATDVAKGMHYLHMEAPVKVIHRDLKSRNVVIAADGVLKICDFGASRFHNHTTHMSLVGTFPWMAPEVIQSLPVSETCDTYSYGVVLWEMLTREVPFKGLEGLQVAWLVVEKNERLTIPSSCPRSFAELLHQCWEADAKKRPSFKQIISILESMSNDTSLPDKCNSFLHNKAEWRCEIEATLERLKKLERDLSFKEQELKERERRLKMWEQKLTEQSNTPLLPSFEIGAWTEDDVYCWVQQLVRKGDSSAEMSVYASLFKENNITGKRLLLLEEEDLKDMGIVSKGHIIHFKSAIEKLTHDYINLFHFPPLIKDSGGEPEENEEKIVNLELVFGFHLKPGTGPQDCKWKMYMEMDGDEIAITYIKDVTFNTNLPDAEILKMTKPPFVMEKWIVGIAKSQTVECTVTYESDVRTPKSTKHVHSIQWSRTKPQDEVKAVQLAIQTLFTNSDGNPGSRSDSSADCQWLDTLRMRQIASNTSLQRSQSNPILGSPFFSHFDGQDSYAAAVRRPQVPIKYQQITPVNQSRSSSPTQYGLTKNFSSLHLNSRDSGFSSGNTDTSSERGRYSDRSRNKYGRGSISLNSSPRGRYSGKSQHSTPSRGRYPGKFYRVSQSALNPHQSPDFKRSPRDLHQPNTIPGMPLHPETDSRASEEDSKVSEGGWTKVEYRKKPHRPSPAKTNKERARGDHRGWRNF

Q: For `CCOc1nc(Nc2ccc(C(=O)N3CCOCC3)cc2OC)nc2[nH]ccc12`, which Activity [1] is on record?
A: Its Activity is 80.3%.

Q: And the Activity [2]?
A: The Activity was 93.9%.

Q: What about the Activity [3] of the same molecule?
A: Its Activity is 96.6%.

Q: And the Activity [4]?
A: Its Activity is 85.8%.

Q: What about the Activity [5] of the same molecule?
A: Its Activity is 96.3%.

Q: What about the Activity [6] of the same molecule?
A: Its Activity is 65.1%.

Q: And the Activity [7]?
A: The Activity was 103%.

Q: What about the Activity (Homo sapiens) of the same molecule?
A: Its Activity is 103%.

Q: And the Activity [8]?
A: Its Activity is 98.3%.

Q: And the Activity [9]?
A: The Activity was 104%.

Q: And the Activity [10]?
A: The Activity was 99.9%.

Q: And the Activity [11]?
A: The Activity was 14.9%.

Q: And the Activity [12]?
A: The Activity was 82%.

Q: What about the Activity [13] of the same molecule?
A: Its Activity is 86.5%.

Q: And the Activity [14]?
A: The Activity was 97%.

Q: What about the Activity [15] of the same molecule?
A: Its Activity is 97.5%.

Q: What about the Activity [16] of the same molecule?
A: The Activity was 98.4%.

Q: What about the Activity [17] of the same molecule?
A: The Activity was 43.1%.

Q: And the Activity [18]?
A: Its Activity is 102%.

Q: What about the Activity [19] of the same molecule?
A: Its Activity is 97.4%.

Q: What about the Activity [20] of the same molecule?
A: Its Activity is 92.6%.

Q: And the Activity [21]?
A: The Activity was 37.4%.

Q: What about the Activity [22] of the same molecule?
A: Its Activity is 121%.

Q: And the Activity [23]?
A: Its Activity is 97.2%.

Q: What about the Activity [24] of the same molecule?
A: The Activity was 108%.

Q: What about the Activity [25] of the same molecule?
A: Its Activity is 92.6%.

Reference: ChEMBL document CHEMBL4715821, “Discovery of 4-ethoxy-7H-pyrrolo[2,3-d]pyrimidin-2-amines as potent, selective and orally bioavailable LRRK2 inhibitors” (Bioorg Med Chem Lett, 2018)
